Source: PMC8296622, “Crystal structure and functional characterization of an oligosaccharide dehydrogenase from Pycnoporus cinnabarinus provides insights into fungal breakdown of lignocellulose” (Biotechnology for Biofuels, 2021)

Legend:
[1] = target: T1, ODH (oligosaccharide dehydrogenase) (Trametes cinnabarina, UniProt A0A060SC37); test: X-ray crystallography of soaked crystals (data not shown); conditions: bound at three external surface sugar-binding sites, not in the active site
T1 construct: gene BN946_scf184803.g17

[2] = target: T1, ODH (oligosaccharide dehydrogenase); test: X-ray crystallography; format: binding; conditions: ligand-free (sugar-free) enzyme, 1.6 Å; non-covalently bound, oxidized FAD

T1 sequence (A0A060SC37 entry or part of it): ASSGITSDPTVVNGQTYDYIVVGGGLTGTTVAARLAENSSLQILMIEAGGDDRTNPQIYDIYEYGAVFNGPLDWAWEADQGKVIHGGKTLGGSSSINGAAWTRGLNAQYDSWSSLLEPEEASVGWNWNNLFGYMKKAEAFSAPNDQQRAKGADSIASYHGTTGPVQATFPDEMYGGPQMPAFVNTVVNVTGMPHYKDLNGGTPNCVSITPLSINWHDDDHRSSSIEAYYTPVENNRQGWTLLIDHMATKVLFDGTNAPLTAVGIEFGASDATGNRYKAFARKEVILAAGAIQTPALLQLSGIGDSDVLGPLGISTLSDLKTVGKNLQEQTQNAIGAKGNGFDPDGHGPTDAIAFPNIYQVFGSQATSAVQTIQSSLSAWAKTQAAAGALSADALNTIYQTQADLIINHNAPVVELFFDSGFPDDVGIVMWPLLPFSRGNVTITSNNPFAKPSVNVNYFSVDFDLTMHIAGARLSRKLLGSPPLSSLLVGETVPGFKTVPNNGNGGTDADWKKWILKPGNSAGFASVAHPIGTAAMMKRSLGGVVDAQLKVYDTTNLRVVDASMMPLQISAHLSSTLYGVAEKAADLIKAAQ

| Structure (SMILES) | X-ray crystallography of soaked crystals (data not shown) [1] | X-ray crystallography [2] |
| --- | --- | --- |
| OC[C@H]1O[C@@H](O[C@H]2[C@H](O)[C@@H](O)C(O)O[C@@H]2CO)[C@H](O)[C@@H](O)[C@@H]1O (mixture of isomers) [G4G, cellobiose] | the ligand was clearly bound to (and modeled at) the three SBSs (data not shown) | – |
| Cc1cc2nc3c(=O)[nH]c(=O)nc-3n(C[C@H](O)[C@H](O)[C@H](O)COP(=O)(O)OP(=O)(O)OC[C@H]3O[C@@H](n4cnc5c(N)ncnc54)[C@H](O)[C@@H]3O)c2cc1C [FAD] | – | The FAD molecule is non-covalently bound to the protein |
